Eight sequences from patent US8703698B2, “Compositions and methods for treating atherosclerosis” (The University of Chicago, priority 2003, dated 2014) can be followed below.

One experiment has as its system J774 macrophages. Briefly: [3H]cholesterol efflux from cholesterol-loaded J774 macrophages in tissue culture. The conditions noted are these: for cholesterol export enhancing activity, time course (FIG. 9) / cholesterol export enhancing activity relative to the human SAA1.1 78-96 containing liposomal formulation (FIG. 9): liposomal formulations, mouse J774 cells; for rate of [3H]cholesterol efflux into medium containing HDL: pre-incubation with liposomes containing 0.5 μM peptide, HDL as acceptor. In kind it is cell-based, mouse.

The test system of experiment [1] is [3H]-cholesterol-loaded J774 macrophages. Briefly: In vivo cholesterol efflux to plasma in mice injected with [3H]-cholesterol-loaded J774 macrophages. How it is done: In these experiments, in vivo cholesterol export was determined in mice injected with J774 macrophages cholesterol-loaded with RBC membranes and [^3H]-cholesterol. Two hundred thousand macrophages in 100:1 PBS were injected into each mouse through the tail vein. At various time points thereafter, approximately 25:1 of blood were collected from the tail vein of each animal into heparinized capillary tubes. The tubes were then centrifuged for 5 minutes in an Adams Autocrit Centrifuge to separate red blood cells from plasma. Cholesterol efflux was determined by measuring the appearance of [^3H]-cholesterol in plasma by scintillation spectrometry. To study whether export of cholesterol from J774 cells to plasma was influenced by non-liposome formulated D-27mer peptide (SEQ ID NO:10), 24 hours after injection of cholesterol-loaded J774 macrophages into mice, the same animals received, by intravenous injection, 30 μg, 60 μg, 150 μg, 225 μg, 300 μg or 600 μg of D-27mer. All these amounts of D-peptides were dissolved in 100:l of phosphate buffered saline and injected through the tail vein of each animal.
Additional in vivo studies have also been conducted wherein mice were first injected intravenously with [^3H]cholesterol-laden macrophages and then injected 24 hours later with liposomes containing 0.5 μM of synthetic peptides corresponding to amino acid residues 1-20, 21-50, 51-80 or 74-103 of murine SAA2.1. Results from this study are depicted in FIG. 1. At time points indicated in the graph of FIG. 1, approximately 25 μl of blood were collected from the tail vein of each animal. The blood samples were centrifuged to separate the red blood cells from the plasma and the [^3H]-cholesterol in plasma was determined by scintillation counting. Results are mean±SEM of four determinations.
To determine cholesterol export in vivo, J774 macrophages were cholesterol-loaded with red blood cell membranes and [^3H]-cholesterol as described above. Cells were washed four times with PBS/BSA and then detached from the culture dishes. Five million cells in 200 μl DMEM were injected into control mice or inflamed mice through the tail vein. At various time points, approximately 25 μl of blood were collected from the tail vein of each animal into heparinized capillary tubes and then centrifuged for 5 minutes in an Adams Autocrit Centrifuge to separate red blood cells from plasma. Cholesterol efflux was determined by measuring the appearance of [^3H]-cholesterol in plasma by scintillation spectrometry.
J774 cells cultured in 6-well plates were enriched with cholesterol by incubating with red blood cell (RBC) membrane fragments (175:g as cholesterol) that had been previously labeled with 0.5:Ci/ml [^3H]-cholesterol at 37° C. for 24 hours in 0.2% bovine serum albumin (BSA). After loading with the labelled RBC membrane for 6 hours, cells were then washed with phosphate-buffered saline/BSA (PBS/BSA) three times followed by an 18 hour equilibration period during which monolayers were exposed to DMEM/BSA. To determine cholesterol export in vivo, J774 macrophages were cholesterol-loaded with RBC membranes and [^3H]-cholesterol as described previously above. Cells were washed four times with PBS/BSA and then detached from the culture dishes. Two hundred thousand cells in 100:l PBS were injected into mice through the tail vein. At various time points thereafter, approximately 25:l of blood were collected from the tail vein of each animal into heparinized capillary tubes. These tubes were then centrifuged for 5 minutes in an Adams Autocrit Centrifuge to separate red blood cells from plasma. Cholesterol efflux was determined by measuring the appearance of [^3H]-cholesterol in plasma by scintillation spectrometry. […]

The test system of experiment [2] is cholesterol ester hydrolase. Briefly: Rate of hydrolysis of cholesteryl ester in cholesterol-laden J774 cells (cholesterol ester hydrolase activity). In kind it is cell-based, murine. As to conditions: liposomes containing 0.5 μl synthetic peptide; J774 cells; Sandoz 58-035 present. The procedure:
Identification of the domain of SAA2.1 that is responsible for enhancing cholesterol ester hydrolase activity was performed in J774 cells preloaded with radio-labeled cholesteryl esters. These experiments were performed in the presence of Sandoz 58-035, an inhibitor of acyl CoA:cholesterol acyl transferase activity, to prevent re-esterification of liberated cholesterol and [^14C]oleate. Incubations proceeded for times ranging from 0 to 24 hours, following which the remaining quantities of [^14C]-labeled cholesteryl oleate in cells were measured to determine the rate of hydrolysis of cholesteryl ester. […] However, an equivalent amount of liposomes containing the synthetic peptide corresponding to amino acid residues 74-103 of murine SAA2.1 caused a 3-fold increase in cholesterol ester hydrolase activity in these cholesterol-laden murine cells. Newly confluent J774 cells were labeled with [^14C]-oleate during cholesterol loading with red blood cell membranes as described above. Cells were then incubated for up to 24 hours with 2 mL of DMEM containing 5% LPDS and 50 μg/mL of either native HDL, SAA-HDL, liposomes containing 2 μmoles of apoA-1, SAA1.1 or 2.1, or liposomes containing 0.5:mol synthetic peptides corresponding to amino acid residues 1-20 (SEQ ID NO:1), 21-50 (SEQ ID NO:2), 51-80 (SEQ ID NO:3) and 74-103 (SEQ ID NO:4) of murine SAA2.1. To determine the rate of cholesteryl ester hydrolysis, 2 μg/mL of the acyl CoA:cholesterol acyl transferase inhibitor Sandoz 58-035 (propanimide, 3-(decyldimethylsilyl)-N-[2-(4-methylphenyl)-1-phenylethyl]-(9Cl) was added during incubation with lipoproteins or liposomes to prevent […] and free cholesterol. To examine whether or not the rate of cholesteryl ester hydrolysis involved the lysosomal cholesteryl ester hydrolase, the cells were cultured in the presence of 50 μg/mL of either native HDL and chloroquine or SAA-HDL and chloroquine (100:M). Chloroquine is an agent that neutralizes the lysosomal proton gradient. At various time points, cellular lipids were extracted and analyzed for cholesteryl ester radioactivity as described above.

In experiment [3] the target is T1, acyl CoA:cholesterol acyl transferase (Mus musculus, UniProt Q61263).
T1 construct: host or cells: J774 mouse macrophages, cholesterol-loaded
T1 sequence (Q61263 1-540): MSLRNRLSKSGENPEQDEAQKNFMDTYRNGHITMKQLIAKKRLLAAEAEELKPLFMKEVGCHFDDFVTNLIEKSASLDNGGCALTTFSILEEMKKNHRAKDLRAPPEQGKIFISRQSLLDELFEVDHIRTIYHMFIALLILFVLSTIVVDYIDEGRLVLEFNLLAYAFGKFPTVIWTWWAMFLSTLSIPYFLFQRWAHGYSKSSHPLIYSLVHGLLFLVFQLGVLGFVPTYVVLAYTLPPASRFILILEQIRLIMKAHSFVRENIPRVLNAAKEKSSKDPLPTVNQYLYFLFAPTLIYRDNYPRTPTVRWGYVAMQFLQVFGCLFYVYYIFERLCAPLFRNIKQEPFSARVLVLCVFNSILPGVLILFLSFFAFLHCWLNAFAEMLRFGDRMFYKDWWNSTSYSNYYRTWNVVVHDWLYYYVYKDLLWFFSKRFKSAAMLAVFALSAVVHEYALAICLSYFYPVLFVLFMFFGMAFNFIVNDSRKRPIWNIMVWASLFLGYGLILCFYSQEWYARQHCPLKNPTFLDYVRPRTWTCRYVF
Briefly: Incorporation of [14C]oleate into cholesteryl ester in cholesterol-laden macrophages (ACAT activity). The format is cell-based, murine. The conditions noted are these: liposomes containing 0.5 μM synthetic peptide; 6 hour incubation; cholesterol-laden murine cells. The procedure:
The incorporation of [^14C]oleate into cholesteryl ester was used as a measure of acyl CoA:cholesterol acyl transferase activity to identify compositions inhibiting the enzyme activity. The relative acyl CoA:cholesterol acyl transferase activity was determined in cholesterol-laden murine cells that had been cultured in medium in the absence of liposomes or in the presence of protein-free liposomes or liposomes containing 0.5 μM synthetic peptides corresponding to amino acids 1-20, 21-50, 51-80 and 74-103 of murine SAA2.1.
To load the cells with cholesterol, nearly confluent mono-layers were washed 3 times with phosphate buffered saline containing 2 mg/mL fatty acid-free bovine serum albumin (PBS-BSA) and incubated for 5 hours in DMEM supplemented with 5% lipoprotein-depleted serum (LPDS) (d>1.25 g/mL) and 175 μg of red blood cell membrane cholesterol. For the purpose of pool equilibration of added cholesterol, cell cultures were rinsed twice with PBS-BSA and incubated overnight in DMEM containing 5% LPDS. The relative activity of acyl CoA:cholesterol acyl transferase was determined in cholesterol-laden cells that had been cultured in medium containing no liposomes, protein-free liposomes or liposomes containing 0.5:M synthetic peptides corresponding to amino acid residues 1-20 (SEQ ID NO:1), 21-50 (SEQ ID NO:2), 51-80 (SEQ ID NO:3) or 74-103 (SEQ ID NO:4) of murine SAA2.1, respectively. Following 3 hours incubation with the above media, [^14C]-oleate was added and the cells were incubated for another 3 hour period (Mendez et al. J. Clin. Invest. 1994 94:1698-1705; Oram et al. Arterioscler. Thromb. 1991 11:403-414). Cells were chilled on ice and washed twice with PBS-BSA and twice with PBS. After addition of [^3H]-cholesteryl oleate (6000 dpm/well) as an internal standard, the lipids were extracted from the labeled cells and analyzed by thin-layer chromatography as described by Mendez et al. (J. Clin. Invest. 1994 94:1698-1705) and Oram et al. (Arterioscler. Thromb. 1991 11:403-414). The radioactivity in appropriate spots was measured to determine the incorporation of radioactivity into cholesteryl esters as a measure of acyl CoA:cholesterol acyl transferase activity.

Where no end group is shown, it is not given here. [ ]: non-standard residue; d: D form.

As for “AANKWGRSGRDPNHFR [SEQ ID NO:28, residues 81-96 of human SAA2.1]”, the “cholesterol export enhancing activity, time course (FIG. 9)” value with J774 macrophages is listed as “little to no cholesterol export enhancing activity”.

With “ADQAANKWGRSGRDPNHFR [SEQ ID NO:11, residues 78-96 of human SAA2.1]”, the “cholesterol export enhancing activity relative to the human SAA1.1 78-96 containing liposomal formulation (FIG. 9)” value in the experiment on J774 macrophages is recorded as “about half”.

For “ADQEANRHGRSGKDPNYYRPPGLPAKY [SEQ ID NO:10] ([dA][dD][dQ][dE][dA][dN][dR][dH]G[dR][dS]G[dK][dD][dP][dN][dY][dY][dR][dP][dP]G[dL][dP][dA][dK][dY]) [residues 77-103 of murine SAA1.1, all D-amino acids]”, the “duration of increase in cholesterol efflux (FIG. 12)” value in experiment [1] (following oral and intravenous administration) is given as “at least 4 days”. Also, the “radiolabeled cholesterol exported in the plasma (FIG. 15)” value in experiment [1] (non-liposome formulated, in 100 μl PBS, intravenous, 15 μg/mouse peptide or 75 μg/mouse full length protein) was “caused an increase in cholesterol exported in the plasma”. The “[3H]-cholesterol efflux as plasma radioactivity (dpm) (FIG. 11)” value in experiment [1] (non-liposome formulated, in PBS, intravenous, 30 to 600 μg per mouse) is “dose-dependent increase”. Also, the “efficacy on oral administration to fasted animals versus animals receiving food (FIG. 16)” value in experiment [1] (non-liposome formulated, oral, 300 μg) is “further enhanced”. For the same sequence, in experiment [1] (non-liposome formulated, oral, same dose), the “cholesterol exported to the plasma at 24 hours, PBS containing 5% weight/volume glucose versus PBS (FIG. 13)” value is listed as “higher”. The “efficacy with smaller volume vehicle containing the same amount of peptide (FIG. 16)” value in experiment [1] (oral, 300 μg in 100 μl versus 500 μl PBS, fasted and fed mice) was “efficacy was enhanced”.

As to “DQAANKWGRSGRDPNHFR [SEQ ID NO:26, residues 79-96 of human SAA2.1]”, in the experiment with J774 macrophages, the “cholesterol export enhancing activity relative to the human SAA1.1 78-96 containing liposomal formulation (FIG. 9)” value is “about half”.

With “QAANKWGRSGRDPNHFR [SEQ ID NO:27, residues 80-96 of human SAA2.1]”, the “cholesterol export enhancing activity, time course (FIG. 9)” value in the experiment with J774 macrophages is “little to no cholesterol export enhancing activity”.

Consider “RSFFSFLGEAFDGARDMWRAYSD [SEQ ID NO:6, synthetic peptide, residues 1-23 of human SAA1.1 and/or SAA2.1]”, for which the “[3H]-cholesterol efflux as plasma radioactivity (dpm) (FIG. 1)” value in experiment [1] (intravenous liposomes containing 0.5 μM peptide, 24 hours after macrophages) was “promoted in vivo cholesterol export”.

As for “TDMKEANWKNSDKYFHARGNYDAAQRGPGG [SEQ ID NO:2, synthetic peptide, residues 21-50 of murine SAA2.1]”, the “rate of hydrolysis of [14C]-labeled cholesteryl oleate versus protein-free liposomes” value in experiment [2] is “no significant differences”. Besides, in the experiment on J774 macrophages, the “rate of [3H]cholesterol efflux into medium containing HDL” value is “did not cause any significant changes”. For the same sequence, the “relative acyl CoA:cholesterol acyl transferase activity” value in experiment [3] is reported as “no significant effect”.

For the sequence “VWAAEKISDGREAFQEFFGRGHEDTIADQE [SEQ ID NO:3, synthetic peptide, residues 51-80 of murine SAA2.1]”, in experiment [2], the “rate of hydrolysis of [14C]-labeled cholesteryl oleate versus protein-free liposomes” value is recorded as “no significant differences”. In the experiment on J774 macrophages, the “rate of [3H]cholesterol efflux into medium containing HDL” value is recorded as “did not cause any significant changes”. Besides, the “relative acyl CoA:cholesterol acyl transferase activity” value in experiment [3] is given as “no significant effect”.
